Experiment [1] relates to human lung cancer-derived cell line NCI-H460 having wild-type p53. Briefly: Cell growth inhibition assay (MTT). Format: cell-based. Conditions: 72 h, NCI-H460 cells, 3 days culture, values given as ranges, read-out: 50% growth inhibition concentration (GI50 value). The protocol:
A cell growth inhibition assay was conducted using a human lung cancer-derived cell line NCI-H460 having wild-type p53.
NCI-H460 cells were suspended in a medium (RPMI1640 medium containing 10% fetal bovine serum) and the suspension was added in an amount of 500 cells/150 μl/well to a 96-well plate. A test compound was dissolved in DMSO and this solution was diluted with medium to prepare a sample solution (DMSO concentration: 1% or lower). On the next day, medium nonsupplemented with the test compound, or the sample solution, was added in an amount of 50 μl/well. Cells were then cultured at 37° ° C. for 3 days in a 5% CO2 atmosphere.
An MTT assay was conducted immediately after the nonsupplemented medium or the sample solution was added. Another MTT assay was conducted after culturing the cells for 3 days. The MIT assays were conducted as shown below.
A 5 mg/ml MTT (3-(4,5-dimethylthiazol-2-yl)-2,5-diphenyltetrazolium bromide, Sigma-Aldrich Co., M-2128) solution was prepared using a phosphate buffer solution (Dulbecco's Phosphate-buffered Saline). This MIT solution was added in an amount of 20 μl/well. Then the plate was cultured at 37° ° C. for 4 hours in a 5% CO2 atmosphere. The plate was centrifuged at 1200 rpm for 5 minutes and then the culture supernatant was removed by aspiration using a dispenser. DMSO was added in an amount of 150 μl/well to dissolve generated formazan. The plate was stirred using a plate mixer for uniform color development from each well. The absorbance of each well was measured at OD 540 nm and at a reference OD (660 nm) using a plate reader (SpectraMax PLUS384, Molecular Devices, CA, USA).
The OD value measured on the day of adding the sample solution was defined as S. The OD value measured three days after addition of the sample solution was defined as T. The OD value measured three days after addition of the DMSO dilution was defined as C. T/C (%) was determined at each concentration according to the formula shown below in order to prepare a dose response curve, from which 50% growth inhibition concentration (GI50 value) was calculated.

Experiment [2] deals with T1, Mdm2/p53 binding (GST-Mdm2 / His-p53) (Homo sapiens, UniProt Q00987, L33E).
T1 construct: Mdm2 partial protein having Mdm2 amino acids at positions 25 to 108
T1 sequence (Q00987 25-108 L33E): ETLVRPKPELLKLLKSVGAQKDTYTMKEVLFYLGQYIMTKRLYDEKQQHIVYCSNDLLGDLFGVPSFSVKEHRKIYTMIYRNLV
Briefly: Mdm2/p53 binding assay (HTRF, His-p53 and GST-Mdm2). The note with it: His-p53 (aa 1-132) and GST-Mdm2 (aa 25-108, L33E) 6.25 nM each; 25°C, 1 hour; values given as ranges. The procedure, abridged:
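His-p53 (aa 1–132) and GST-Mdm2 (aa 25–108, L33E) were prepared at 6.25 nM each in the protein dilution (20 mM HEPES pH 7.4, 150 mM NaCl, 0.1% BSA). Compound in 10% DMSO buffer and XL665 anti-His/Eu anti-GST antibodies (KF buffer) were added, with 1 h at 25 °C. The 665/620 nm TR-FRET ratio gave T/C and a sigmoid-fitted IC50.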

Usually IC50 stands for the concentration at which inhibition is half-maximal.

A value given as a limit tells only on which side of the number the result lay.

In the case of `CC1(C)CCC2(CC1)N[C@@H](C(=O)N[C@@H]1CC[C@@H](c3nnco3)OC1)[C@H](c1ccnc(Cl)c1F)[C@]21C(=O)Nc2cc(Cl)ccc21` [Example 34, (3′R, 4′S,5′R)-6″-chloro-4′-(2-chloro-3-fluoropyridin-4-yl)-4,4-dimethyl-N-[(3R,6S)-6-(1,3,4-oxadiazol-2-yl)tetrahydro-2H-pyran-3-yl]-2″-oxo-1″,2″-dihydrodispiro[cyclohexane-1,2′-pyrrolidine-3′,3″-indole]-5′-carboxamide], the GI50 in experiment [1] lay in the range of 100 to 500 nM. In experiment [2], this compound displayed an IC50 of 1 to 50 nM.

In the case of `CC1(C)CCC2(CC1)N[C@@H](C(=O)N[C@H]1CC[C@H](c3n[nH]c(=O)o3)CC1)[C@H](c1ccnc(Cl)c1F)[C@]21C(=O)Nc2cc(Cl)ccc21` [Example 35, (3′R, 4′S, S′R)-6″-chloro-4′-(2-chloro-3-fluoropyridin-4-yl)-4,4-dimethyl-2″-oxo-N-[trans-4-(5-oxo-4,5-dihydro-1,3,4-oxadiazol-2-yl)cyclohexyl]-1″,2″-dihydrodispiro[cyclohexane-1,2′-pyrrolidine-3′,3″-indole]-5′-carboxamide], the GI50 in experiment [1] was under 100 nM. For the same compound, the IC50 in experiment [2] is 50 to 100 nM.

As for `O=C(N[C@@H]1CC[C@@H](CO)OC1)[C@@H]1NC2(CC(CF)(CF)C2)[C@@]2(C(=O)Nc3cc(Cl)ccc32)[C@H]1c1cccc(Cl)c1F` [Example 38, (3′R, 4′S,5′R)-6″-chloro-4′-(3-chloro-2-fluorophenyl)-3,3-bis(fluoromethyl)-N-[(3R,6S)-6-(hydroxymethyl)tetrahydro-2H-pyran-3-yl]-2″-oxo-1″,2″-dihydrodispiro [cyclobutane-1,2′-pyrrolidine-3′,3″-indole]-5′-carboxamide], in experiment [1], the GI50 was 100 to 500 nM. This compound displayed an IC50 in experiment [2] of 1 to 50 nM.

Consider `CC1(C)CCC2(CC1)N[C@@H](C(=O)N[C@H]1CC[C@@](O)(CO)CC1)[C@H](c1ccnc(Cl)c1F)[C@]21C(=O)Nc2cc(Cl)ccc21` [Example 40, (3′R, 4′S,5R)-6″-chloro-4′-(2-chloro-3-fluoropyridin-4-yl)-N-[trans-4-hydroxy-4-(hydroxymethyl)cyclohexyl]-4,4-dimethyl-2″-oxo-1″,2″-dihydrodispiro[cyclohexane-1,2′-pyrrolidine-3′,3″-indole]-5′-carboxamide], for which the GI50 in experiment [1] lay within 500 to 1000 nM. This compound came in with an IC50 in experiment [2] of 1 to 50 nM.

Turning to `CC1(C)CCC2(CC1)N[C@@H](C(=O)N[C@@H]1CC[C@@H](C(C)(C)O)OC1)[C@H](c1ccnc(Cl)c1F)[C@]21C(=O)Nc2nc(Cl)ccc21` [Example 47, (3′R, 4′S,5′R)-6″-chloro-4′-(2-chloro-3-fluoropyridin-4-yl)-N-[(3R,6S)-6-(1-hydroxy-1-methylethyl)tetrahydro-2H-pyran-3-yl]-4,4-dimethyl-2″-oxo-1″,2″-dihydrodispiro[cyclohexane-1,2′-pyrrolidine-3′,3″-pyrrolo[2,3-b]pyridine]-5′-carboxamide], the GI50 in experiment [1] was in the range of 500 to 1000 nM. The same compound gave an IC50 in experiment [2] of 50 to 100 nM.

As to `CC1(C)CCC2(CC1)N[C@@H](C(=O)N[C@H]1CC[C@H](c3n[nH]c(=O)o3)CC1)[C@H](c1ccnc(Cl)c1)[C@]21C(=O)Nc2cc(Cl)ccc21` [Example 51, (3′R, 4′R, 5′R)-6″-chloro-4′=(2-chloropyridin-4-yl)-4,4-dimethyl-2″-oxo-N-[trans-4-(5-oxo-4,5-dihydro-1,3,4-oxadiazol-2-yl)cyclohexyl]-1″,2″-dihydrodispiro[cyclohexane-1,2′-pyrrolidine-3′,3″-indole]-5′-carboxamide], the GI50 in experiment [1] is 100 to 500 nM. This compound also came in with an IC50 in experiment [2] of 50 to 100 nM.

Regarding `CC1(C)CCC2(CC1)N[C@@H](C(=O)N[C@@H]1CC[C@@H](c3nnco3)OC1)[C@H](c1ccnc(Cl)c1)[C@]21C(=O)Nc2cc(Cl)ccc21` [Example 53, (3′R, 4′R, 5′R)-6″-chloro-4′-(2-chloropyridin-4-yl)-4,4-dimethyl-N-[(3R,6S)-6-(1,3,4-oxadiazol-2-yl)tetrahydro-2-pyran-3-yl]-2″-oxo-1″,2″-dihydrodispiro[cyclohexane-1,2′-pyrrolidine-3′,3″-indole]-5′-carboxamide], the GI50 in experiment [1] lay in the range of 500 to 1000 nM. The same compound displayed an IC50 in experiment [2] of 1 to 50 nM.

Take `CC1(C)CCC2(CC1)N[C@@H](C(=O)N[C@H]1CC[C@H](c3nnco3)CC1)[C@H](c1ccnc(Cl)c1)[C@]21C(=O)Nc2cc(Cl)ccc21` [Example 54, (3′R, 4′R, 5′R)-6″-chloro-4′-(2-chloropyridin-4-yl)-4,4-dimethyl-N-[trans-4-(1,3,4-oxadiazol-2-yl)cyclohexyl]-2″-oxo-1″,2″-dihydrodispiro[cyclohexane-1,2′-pyrrolidine-3′,3″-indole]-5′-carboxamide]: the GI50 in experiment [1] is 500 to 1000 nM. The compound further returned an IC50 in experiment [2] of 50 to 100 nM.

Consider `CC1(C)CCC2(CC1)N[C@@H](C(=O)N[C@@H]1CC[C@@H](c3n[nH]c(=O)o3)OC1)[C@H](c1ccnc(Cl)c1F)[C@]21C(=O)Nc2cc(Cl)ccc21` [Example 57, (3′R, 4′S,5′R)-6″-chloro-4′-(2-chloro-3-fluoropyridin-4-yl)-4,4-dimethyl-2″-oxo-N-[(3R,6S)-6-(5-oxo-4,5-dihydro-1,3,4-oxadiazol-2-yl)tetrahydro-2H-pyran-3-yl]-1″,2″-dihydrodispiro[cyclohexane-1,2′-pyrrolidine-3′,3″-indole]-5′-carboxamide], for which the GI50 in experiment [1] fell in the range of 100 to 500 nM. The IC50 in experiment [2] was 1 to 50 nM.

Regarding `CC1(C)CCC2(CC1)N[C@@H](C(=O)N[C@H]1CC[C@H](C(N)=O)CC1)[C@H](c1ccnc(Cl)c1F)[C@]21C(=O)Nc2cc(Cl)ccc21` [Example 67, (3′R, 4′S,5′R)—N-(trans-4-carbamoylcyclohexyl)-6″-chloro-4′-(2-chloro-3-fluoropyridin-4-yl)-4,4-dimethyl-2′-oxo-1″,2″-dihydrodispiro[cyclohexane-1,2′-pyrrolidine-3′,3″-indole]-5′-carboxamide], the GI50 in experiment [1] was 100 to 500 nM. Besides, the IC50 in experiment [2] was 1 to 50 nM.

Take `CO[C@@H]1C[C@@H](NC(=O)[C@@H]2NC3(CCC(C)(C)CC3)[C@@]3(C(=O)Nc4cc(Cl)ccc43)[C@H]2c2ccnc(Cl)c2F)CO[C@@H]1CO` [Example 69, (3′R, 4′S,5′R)-6″-chloro-4′-(2-chloro-3-fluoropyridin-4-yl)-N-((3R,5R,6R)-6-(hydroxymethyl)-5-methoxytetrahydro-2H-pyran-3-yl)-4,4-dimethyl-2″-oxo-1″,2″-dihydrodispiro[cyclohexane-1,2′-pyrrolidine-3′,3″-indole]-5′-carboxamide]: in experiment [1], the GI50 is 100 to 500 nM. The same compound displayed a half-maximal inhibitory concentration (IC50) in experiment [2] of 1 to 50 nM.

As to `CCNC(=O)[C@@H]1CC[C@@H](NC(=O)[C@@H]2NC3(CCC(C)(C)CC3)[C@@]3(C(=O)Nc4cc(Cl)ccc43)[C@H]2c2ccnc(Cl)c2F)CO1` [Example 88, (3′R, 4′S,5′R)-6″-chloro-4′-(2-chloro-3-fluoropyridin-4-yl)-N-[(3R,6S)-6-(ethylcarbamoyl)tetrahydro-2H-pyran-3-yl]-4,4-dimethyl-2″-oxo-1″,2″-dihydrodispiro[cyclohexane-1,2′-pyrrolidine-3′,3″-indole]-5′-carboxamide], the GI50 in experiment [1] was 100 to 500 nM. Further, in experiment [2], the IC50 was 50 to 100 nM.

As for `CC(C)NC(=O)[C@@H]1CC[C@@H](NC(=O)[C@@H]2NC3(CCC(C)(C)CC3)[C@@]3(C(=O)Nc4cc(Cl)ccc43)[C@H]2c2ccnc(Cl)c2F)CO1` [Example 96, (3′R, 4′S,5′R)-6″-chloro-4′-(2-chloro-3-fluoropyridin-4-yl)-N-[(3R,6S)-6-(isopropylcarbamoyl)tetrahydro-2H-pyran-3-yl]-4,4-dimethyl-2′-oxo-1″,2″-dihydrodispiro[cyclohexane-1,2′-pyrrolidine-3′,3″-indole]-5′-carboxamide], the GI50 in experiment [1] lay within 100 to 500 nM. In experiment [2], the IC50 was in the range of 50 to 100 nM.

Turning to `CC1(C)CCC2(CC1)N[C@@H](C(=O)N[C@@H]1CC[C@@H](C(=O)NC3CC3)OC1)[C@H](c1ccnc(Cl)c1F)[C@]21C(=O)Nc2cc(Cl)ccc21` [Example 97, (3′R, 4′S,5′R)-6″-chloro-4′-(2-chloro-3-fluoropyridin-4-yl)-N-[(3R,6S)-6-(cyclopropylcarbamoyl)tetrahydro-2H-pyran-3-yl]-4,4-dimethyl-2″-oxo-1″,2″-dihydrodispiro[cyclohexane-1,2′-pyrrolidine-3′,3″-indole]-5′-carboxamide], the GI50 in experiment [1] lay in the range of 100 to 500 nM. This compound also displayed an IC50 in experiment [2] of 1 to 50 nM.
